The target in one assay is Mcl-1 (Homo sapiens (Human), UniProt Q07820). Nature of the assay: Fluorescence polarization anisotropy (FPA) competition assay, FITC-Bak or FITC-Bim BH3 peptide. Format: binding. The following applies: read-out: Ki for Inhibition of Mcl-1 by FPA assay. On the technique in general: In fluorescence polarisation assays a small probe gives low polarisation when free and higher when bound to something large.

Assay [1] deals with H929 human cancer cell lines. Nature of the assay: Cellular viability / proliferation (Cell TiterGlo, 72 h). Format: cell-based. A digest of the protocol:
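Plating is at 1,000 cells/well in 10% FBS medium; after 24 h, compound is added as a 2-fold series starting at 50 μM with under 1% DMSO.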
(In general: In ATP-based viability assays light output follows the ATP content of the culture.)

The mark [2] stands for this setting: Homo sapiens, NCI-H929, 72 h, read-out: GI50 on cellular proliferation of H929 human cancer cell lines, H929 cells, 72 h, Cell TiterGlo, 10% FBS.

Where two headings read alike, the source gives them in different places.

Broadly, the Ki is a dissociation constant, usually derived from enzyme kinetics or from competition with a known ligand.

Mcl-1, sequence (Q07820 172-327): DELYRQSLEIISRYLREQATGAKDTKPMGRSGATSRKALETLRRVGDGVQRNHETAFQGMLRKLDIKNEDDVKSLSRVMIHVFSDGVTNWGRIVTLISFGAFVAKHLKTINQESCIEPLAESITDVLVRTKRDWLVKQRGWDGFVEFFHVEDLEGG

Turning to `Cc1cc(OCCCc2c3n(c4c(-c5c(C)nn(C)c5C)c(Cl)ccc24)[C@H](C)CN(c2cn(C)c4ccc(-c5ncccn5)cc24)C3=O)cc(C)c1Cl` [Example 394, (R)-7-Chloro-10-(3-(4-chloro-3,5-dimethylphenoxy)propyl)-4-methyl-2-(1-methyl-5-(pyrimidin-2-yl)-1H-indol-3-yl)-6-(1,3,5-trimethyl-1H-pyrazol-4-yl)-3,4-dihydropyrazino[1,2-a]indol-1(2H)-one], the Ki on Mcl-1 is 2.8 nM. Moreover, the GI50 in assay [1] (setting [2]) worked out at 270 nM.

For the compound `Cc1cc(OCCCc2c3n(c4c(-c5c(C)nn(CCN6CCCC6)c5C)c(Cl)ccc24)[C@H](C)CN(c2cn(C)c4ccc(C(N)=O)cc24)C3=O)cc(C)c1Cl` [Example 392, (R)-3-(7-chloro-10-(3-(4-chloro-3,5-dimethylphenoxy)propyl)-6-(3,5-dimethyl-1-(2-(pyrrolidin-1-yl)ethyl)-1H-pyrazol-4-yl)-4-methyl-1-oxo-3,4-dihydropyrazino[1,2-a]indol-2(1H)-yl)-1-methyl-1H-indole-5-carboxamide], the Ki on Mcl-1 is 23 nM. In addition, in assay [1] (setting [2]), the GI50 turned out to be 950 nM.

With `Cc1cc(OCCCc2c3n(c4c(-c5c(C)nn(C)c5C)c(Cl)ccc24)[C@H](C)CN(c2cn(C)c4ccc(-c5ccn(C)n5)cc24)C3=O)cc(C)c1Cl` [Example 388, (R)-7-Chloro-10-(3-(4-chloro-3,5-dimethylphenoxy)propyl)-4-methyl-2-(1-methyl-5-(1-methyl-1H-pyrazol-3-yl)-1H-indol-3-yl)-6-(1,3,5-trimethyl-1H-pyrazol-4-yl)-3,4-dihydropyrazino[1,2-a]indol-1(2H)-one], the Ki at Mcl-1 was 1.5 nM. Moreover, the GI50 in assay [1] (setting [2]) came to 330 nM.

As for `Cc1cc(OCCCc2c3n(c4c(-c5c(C)nn(C)c5C)c(Cl)ccc24)[C@H](C)CN(c2cc(C(=O)O)c4cc[nH]c4c2)C3=O)cc(C)c1Cl` [Example 101, (R)-6-(7-chloro-10-(3-(4-chloro-3,5-dimethylphenoxy)propyl)-4-methyl-1-oxo-6-(1,3,5-trimethyl-1H-pyrazol-4-yl)-3,4-dihydropyrazino[1,2-a]indol-2(1H)-yl)-1H-indole-4-carboxylic acid], the Ki at Mcl-1 was below 1 nM. In addition, the GI50 in assay [1] (setting [2]) is 2100 nM.

For `Cc1cc(OCCCc2c3n(c4c(-c5c(C)nn(C)c5C)c(Cl)ccc24)[C@H](C)CN(c2cccc4cc(C(=O)O)n(Cc5ccncc5)c24)C3=O)cc(C)c1Cl` [Example 248, 7-[(4R)-7-chloro-10-[3-(4-chloro-3,5-dimethyl-phenoxy)propyl]-4-methyl-1-oxo-6-(1,3,5-trimethylpyrazol-4-yl)-3,4-dihydropyrazino[1,2-a]indol-2-yl]-1-(4-pyridylmethyl)indole-2-carboxylic acid], on Mcl-1, the Ki was below 1 nM. The GI50 in assay [1] (setting [2]) came out at 570 nM.

In the case of `Cc1cc(OCCCc2c3n(c4c(-c5c(C)nn(C)c5C)c(Cl)ccc24)[C@H](C)CN(c2cn(CCC4CCOCC4)c4ccc(C(=O)O)cc24)C3=O)cc(C)c1Cl` [Example 240, (R)-3-(7-Chloro-10-(3-(4-chloro-3,5-dimethylphenoxy)propyl)-4-methyl-1-oxo-6-(1,3,5-trimethyl-1H-pyrazol-4-yl)-3,4-dihydropyrazino[1,2-a]indol-2(1H)-yl)-1-(2-(tetrahydro-2H-pyran-4-yl)ethyl)-1H-indole-5-carboxylic acid], on Mcl-1, the Ki is below 1 nM. For the same compound, the GI50 in assay [1] (setting [2]) was 1900 nM.

Take `Cc1cc(N2C[C@@H](C)n3c(c(CCCOc4cc(C)c(Cl)c(C)c4)c4ccc(Cl)c(-c5c(C)nn(CCN6CCCC6)c5C)c43)C2=O)c2c(c1)cc(C(=O)O)n2C` [Example 463, (R)-7-(7-Chloro-10-(3-(4-chloro-3,5-dimethylphenoxy)propyl)-6-(3,5-dimethyl-1-(2-(pyrrolidin-1-yl)ethyl)-1H-pyrazol-4-yl)-4-methyl-1-oxo-3,4-dihydropyrazino[1,2-a]indol-2(1H)-yl)-1,5-dimethyl-1H-indole-2-carboxylic acid]: the Ki at Mcl-1 amounted to 2.1 nM. For the same compound, in assay [1] (setting [2]), the GI50 was 290 nM.

`Cc1cc(OCCCc2c3n(c4c(-c5c(C)nn(C)c5C)c(Cl)ccc24)[C@H](C)CN(c2cccc4c(C(=O)O)cn(Cc5cccnc5)c24)C3=O)cc(C)c1Cl` [Example 467, (R)-7-(7-Chloro-10-(3-(4-chloro-3,5-dimethylphenoxy)propyl)-4-methyl-1-oxo-6-(1,3,5-trimethyl-1H-pyrazol-4-yl)-3,4-dihydropyrazino[1,2-a]indol-2(1H)-yl)-1-(pyridin-3-ylmethyl)-1H-indole-3-carboxylic acid]: on Mcl-1, the Ki was 1.3 nM. The GI50 in assay [1] (setting [2]) was found to be 1300 nM.

On to `CCn1nc(C(=O)O)c2cccc(N3C[C@@H](C)n4c(c(CCCOc5cc(C)c(Cl)c(C)c5)c5ccc(Cl)c(-c6c(C)nn(C)c6C)c54)C3=O)c21` [Example 118, (R)-7-(7-chloro-10-(3-(4-chloro-3,5-dimethylphenoxy)propyl)-4-methyl-1-oxo-6-(1,3,5-trimethyl-1H-pyrazol-4-yl)-3,4-dihydropyrazino[1,2-a]indol-2(1H)-yl)-1-ethyl-1H-indazole-3-carboxylic acid], for which the inhibitory constant (Ki) at Mcl-1 was below 1 nM. The GI50 in assay [1] (setting [2]) came out at 820 nM.

`Cc1cc(OCCCc2c3n(c4c(-c5c(C)nn(CC6CCN(C)C6)c5C)c(Cl)ccc24)[C@H](C)CN(c2cn(C)c4ccc(C(=O)O)cc24)C3=O)cc(C)c1Cl` (stereo partly drawn) [Example 261, 3-((4R)-7-chloro-10-(3-(4-chloro-3,5-dimethylphenoxy)propyl)-6-(3,5-dimethyl-1-((1-methylpyrrolidin-3-yl)methyl)-1H-pyrazol-4-yl)-4-methyl-1-oxo-3,4-dihydropyrazino[1,2-a]indol-2(1H)-yl)-1-methyl-1H-indole-5-carboxylic acid]: the Ki at Mcl-1 is below 1 nM. Also, in assay [1] (setting [2]), the GI50 came out at 530 nM.

Take `Cc1cc(OCCCc2c3n(c4c(-c5c(C)nn(C)c5C)c(Cl)ccc24)[C@H](C)CN(c2c(C)n(C)c4ccc(C(=O)O)cc24)C3=O)cc(C)c1Cl` [Example 275, 3-[(4R)-7-chloro-10-[3-(4-chloro-3,5-dimethyl-phenoxy)propyl]-4-methyl-1-oxo-6-(1,3,5-trimethylpyrazol-4-yl)-3,4-dihydropyrazino[1,2-a]indol-2-yl]-1,2-dimethyl-indole-5-carboxylic acid]: the Ki on Mcl-1 is below 1 nM. Besides, the GI50 in assay [1] (setting [2]) came to 370 nM.

On to `Cc1cc(OCCCc2c3n(c4c(-c5c(C)nn(C)c5C)c(Cl)ccc24)[C@H](C)CN(c2ccc(OCc4ccccc4)c4c2cc(C(=O)O)n4C)C3=O)cc(C)c1Cl` [Example 299, (P, R)-7-(benzyloxy)-4-(7-chloro-10-(3-(4-chloro-3,5-dimethylphenoxy)propyl)-4-methyl-1-oxo-6-(1,3,5-trimethyl-1H-pyrazol-4-yl)-3,4-dihydropyrazino[1,2-a]indol-2(1H)-yl)-1-methyl-1H-indole-2-carboxylic acid], for which the Ki on Mcl-1 is 2 nM. In addition, the GI50 in assay [1] (H929 cells, 72 h, Cell TiterGlo, 10% FBS, read-out: GI50 on cellular proliferation of H929 human cancer cell lines) was found to be 2300 nM.

Turning to `Cc1cc(OCCCc2c3n(c4c(-c5c(C)nn(C)c5C)c(Cl)ccc24)[C@H](C)CN(c2ccnc4c(C(=O)O)cccc24)C3=O)cc(C)c1Cl` [Example 253, (R)-4-(7-Chloro-10-(3-(4-chloro-3,5-dimethylphenoxy)propyl)-4-methyl-1-oxo-6-(1,3,5-trimethyl-1H-pyrazol-4-yl)-3,4-dihydropyrazino[1,2-a]indol-2(1H)-yl)quinoline-8-carboxylic acid], on Mcl-1, the Ki was found to be 1.2 nM. In addition, the GI50 in assay [1] (setting [2]) is 1100 nM.

`COCCn1cc(N2C[C@@H](C)n3c(c(CCCOc4cc(C)c(Cl)c(C)c4)c4ccc(Cl)c(-c5c(C)nn(C)c5C)c43)C2=O)c2cc(C(=O)O)ccc21` [Example 268, (R)-3-(7-chloro-10-(3-(4-chloro-3,5-dimethylphenoxy)propyl)-4-methyl-1-oxo-6-(1,3,5-trimethyl-1H-pyrazol-4-yl)-3,4-dihydropyrazino[1,2-a]indol-2(1H)-yl)-1-(2-methoxyethyl)-1H-indole-5-carboxylic acid]: the Ki at Mcl-1 was below 1 nM. Moreover, in assay [1] (setting [2]), the GI50 came to 410 nM.

Turning to `Cc1cc(OCCCc2c3n(c4c(-c5c(C)nn(C)c5C)c(Cl)ccc24)[C@H](C)CN(c2cn(C)c4ccc(-c5n[nH]c(=O)o5)cc24)C3=O)cc(C)c1Cl` [Example 444, (R)-5-(3-(7-Chloro-10-(3-(4-chloro-3,5-dimethylphenoxy)propyl)-4-methyl-1-oxo-6-(1,3,5-trimethyl-1H-pyrazol-4-yl)-3,4-dihydropyrazino[1,2-a]indol-2(1H)-yl)-1-methyl-1H-indol-5-yl)-1,3,4-oxadiazol-2(3H)-one], on Mcl-1, the Ki was 1.3 nM. In addition, the GI50 in assay [1] (setting [2]) was determined as 220 nM.

For `COc1ccnc(Cn2c(C(=O)O)cc3cccc(N4C[C@@H](C)n5c(c(CCCOc6cc(C)c(Cl)c(C)c6)c6ccc(Cl)c(-c7c(C)nn(C)c7C)c65)C4=O)c32)c1` [Example 378, (R)-7-(7-Chloro-10-(3-(4-chloro-3,5-dimethylphenoxy)propyl)-4-methyl-1-oxo-6-(1,3,5-trimethyl-1H-pyrazol-4-yl)-3,4-dihydropyrazino[1,2-a]indol-2(1H)-yl)-1-((4-methoxypyridin-2-yl)methyl)-1H-indole-2-carboxylic acid], on Mcl-1, the Ki was 1.9 nM. Besides, the GI50 in assay [1] (setting [2]) was determined as 410 nM.

As to `CCn1cc(N2C[C@@H](C)n3c(c(CCCOc4cc(C)c(Cl)c(C)c4)c4ccc(Cl)c(-c5c(C)nn(C)c5C)c43)C2=O)c2ccc(C(=O)O)cc21` [Example 104, (R)-3-(7-Chloro-10-(3-(4-chloro-3,5-dimethylphenoxy)propyl)-4-methyl-1-oxo-6-(1,3,5-trimethyl-1H-pyrazol-4-yl)-3,4-dihydropyrazino[1,2-a]indol-2(1H)-yl)-1-ethyl-1H-indole-6-carboxylic acid], the Ki on Mcl-1 is below 1 nM. Further, in assay [1] (setting [2]), the GI50 is 570 nM.

Source of the values: patent US11596639B2, “Substituted indole Mcl-1 inhibitors” (Vanderbilt University, priority 2016, dated 2023).
